Source: patent US9018214B2, “Bicyclic heterocycle compounds and their uses in therapy” (Astex Therapeutics Limited, priority 2011, dated 2015)
Counter-ions that a name gives are not always drawn. Like-named read-outs stand apart in the source and are kept apart here.

Assays:
[1] = tested on: EVSA-T (human breast carcinoma); test: Anti-proliferative activity, Alamar Blue assay, EVSA-T; type: cell-based; conditions: Homo sapiens, EVSA-T, read-out: EVSA-T prolif (EC50)
[2] = target: BIR3 domain of human XIAP (residues 252-350) (Homo sapiens (Human), UniProt P98170); test: XIAP in vitro competitive displacement binding assay (fluorescence polarization); conditions: for inhibition at 0.04 µM: 1 h, read-out: IC50 or PI Xiap: PI; for IC50: read-out: IC50 or PI Xiap: IC50
[3] = target: BIR3 domain of human cIAP-1 (residues 267-363) (Homo sapiens (Human), UniProt Q13490); test: cIAP-1 in vitro competitive displacement binding assay (fluorescence polarization; Probe A AVPIK(5&6FAM)-amide or Probe B AbuRPFK(5&6FAM)-amide); conditions: for inhibition at […]: 3 h, read-out: IC50 or PI cIAP1: PI
[4] = Probe B AbuRPFK(5&6FAM)-amide, read-out: IC50 or PI cIAP1: IC50

SMILES | EC50 ([1]; 72 hours, Alamar Blue) | IC50 [2] | inhibition at […] ([3]; Probe B, @ 0.012 μM) | inhibition at […] [3] | EC50 ([1]; 72 h) | other results
CCC(F)(F)c1cnc2c(c1)N(C(=O)CN1C[C@@H](C)NC[C@@H]1CN1CCOC[C@H]1C)CC2(C)C [Example 186, 1-[6-(1,1-Difluoropropyl)-3,3-dimethyl-1H,2H,3H-pyrrolo[3,2-b]pyridin-1-yl]-2-[(2R,5R)-5-methyl-2-{[(3R)-3-methylmorpholin-4-yl]methyl}piperazin-1-yl]ethan-1-one, a hydrochloride salt] | 25 nM | – | – | – | – | inhibition at 0.04 µM ([2]; @ 0.04 μM): 59%; IC50 [3, 4]: 11 nM
C[C@@H]1CN(CC(=O)N2CC(C)(C)c3cnc(Oc4ccccc4Cl)cc32)[C@@H](CN2CCOC2=O)CN1 [Example 189, 3-{[(2R,5R)-1-{2-[6-(2-Chlorophenoxy)-3,3-dimethyl-1H,2H,3H-pyrrolo[3,2-c]pyridin-1-yl]-2-oxoethyl}-5-methylpiperazin-2-yl]methyl}-1,3-oxazolidin-2-one hydrochloride] | 190 nM | – | – | – | – | inhibition at 0.04 µM ([2]; @ 0.04 μM): 70%; IC50 [3, 4]: 14 nM
C[C@@H]1CN(CC(=O)N2CC(C)(C)c3cnc(Cc4ccc(F)cc4F)cc32)[C@@H](CN2CCOCC2=O)CN1 [Example 191, 4-{[(2R,5R)-1-(2-{6-[(2,4-Difluorophenyl)methyl]-3,3-dimethyl-1H,2H,3H-pyrrolo[3,2-c]pyridin-1-yl}-2-oxoethyl)-5-methylpiperazin-2-yl]methyl}morpholin-3-one hydrochloride] | 17 nM | 47 nM | 94% | – | – | –
C[C@@H]1CN(CC(=O)N2CC(C)(C)c3cnc(Cc4ccc(F)cc4F)cc32)[C@@H](CN2CCCCC2=O)CN1 [Example 192, 1-{[(2R,5R)-1-(2-{6-[(2,4-Difluorophenyl)methyl]-3,3-dimethyl-1H,2H,3H-pyrrolo[3,2-c]pyridin-1-yl}-2-oxoethyl)-5-methylpiperazin-2-yl]methyl}piperidin-2-one hydrochloride] | 8.8 nM | 58 nM | 95% | – | – | –
C[C@@H]1CN(CC(=O)N2CC(C)(C)c3cnc(Cc4ccc(F)cc4F)cc32)[C@@H](Cn2ccccc2=O)CN1 [Example 193, 1-{[(2R,5R)-1-(2-{6-[(2,4-Difluorophenyl)methyl]-3,3-dimethyl-1H,2H,3H-pyrrolo[3,2-c]pyridin-1-yl}-2-oxoethyl)-5-methylpiperazin-2-yl]methyl}-1,2-dihydropyridin-2-one dihydrochloride] | 16 nM | – | – | 98% | – | inhibition at 0.04 µM [2]: 44%
C[C@@H]1CN(CC(=O)N2CC(C)(C)c3cnc(Cc4ccc(F)cc4F)cc32)[C@@H](Cn2ncccc2=O)CN1 [Example 194, 2-{[(2R,5R)-1-(2-{6-[(2,4-Difluorophenyl)methyl]-3,3-dimethyl-1H,2H,3H-pyrrolo[3,2-c]pyridin-1-yl}-2-oxoethyl)-5-methylpiperazin-2-yl]methyl}-2,3-dihydropyridazin-3-one dihydrochloride] | – | 55 nM | – | 99% | 9.8 nM | –
C[C@@H]1CN(CC(=O)N2CC(C)(C)c3cnc(Cc4ccc(F)cc4F)cc32)[C@@H](Cn2ccncc2=O)CN1 [Example 195, 1-{[(2R,5R)-1-(2-{6-[(2,4-Difluorophenyl)methyl]-3,3-dimethyl-1H,2H,3H-pyrrolo[3,2-c]pyridin-1-yl}-2-oxoethyl)-5-methylpiperazin-2-yl]methyl}-1,2-dihydropyrazin-2-one dihydrochloride] | – | 67 nM | – | 96% | 36 nM | –
C[C@@H]1CN(CC(=O)N2CC(C)(C)c3cnc(C(F)(F)c4ccccc4)cc32)[C@@H](CN2CCN(C)C2=O)CN1 [Example 197, 1-{[(2R,5R)-1-(2-{6-[Difluoro(phenyl)methyl]-3,3-dimethyl-1H,2H,3H-pyrrolo[3,2-c]pyridin-1-yl}-2-oxoethyl)-5-methylpiperazin-2-yl]methyl}-3-methylimidazolidin-2-one hydrochloride] | 49 nM | – | 76% | – | – | inhibition at 0.04 µM ([2]; @ 0.04 μM): 68%
CCC(F)(F)c1cc2c(cn1)C(C)(C)CN2C(=O)CN1C[C@@H](C)NC[C@@H]1CN1CCCC1=O [Example 198, 1-{[(2R,5R)-1-{2-[6-(1,1-Difluoropropyl)-3,3-dimethyl-1H,2H,3H-pyrrolo[3,2-c]pyridin-1-yl]-2-oxoethyl}-5-methylpiperazin-2-yl]methyl}pyrrolidin-2-one] | 880 nM | – | – | – | – | inhibition at 0.04 µM ([2]; @ 0.04 μM): 69%; IC50 [3]: < 1000 nM; IC50 [3, 4]: 23 nM
C[C@@H]1CN(CC(=O)N2CC(C)(C)c3ncc(Cc4ccc(F)cc4F)cc32)[C@@H](CN2CCOC2=O)CN1 [Example 200, 3-{[(2R,5R)-1-(2-{6-[(2,4-Difluorophenyl)methyl]-3,3-dimethyl-1H,2H,3H-pyrrolo[3,2-b]pyridin-1-yl}-2-oxoethyl)-5-methylpiperazin-2-yl]methyl}-1,3-oxazolidin-2-one dihydrochloride] | – | 74 nM | – | 96% | 8.8 nM | –
C[C@@H]1CN(CC(=O)N2CC(C)(C)c3nnc(Cc4ccc(F)cc4F)cc32)[C@@H](CN2CCCC2=O)CN1 [Example 201, 1-{[(2R,5R)-1-(2-{3-[(2,4-Difluorophenyl)methyl]-7,7-dimethyl-5H,6H,7H-pyrrolo[3,2-c]pyridazin-5-yl}-2-oxoethyl)-5-methylpiperazin-2-yl]methyl}pyrrolidin-2-one hydrochloride] | 5.2 nM | 81 nM | 88% | – | – | –
C[C@@H]1CN(CC(=O)N2CC(C)(C)c3cnc(Cc4ccc(F)cc4F)cc32)[C@@H](CN2CC[C@H](F)C2)CN1 [Example 202, 1-{6-[(2,4-Difluorophenyl)methyl]-3,3-dimethyl-1H,2H,3H-pyrrolo[3,2-c]pyridin-1-yl}-2-[(2R,5R)-2-{[(3S)-3-fluoropyrrolidin-1-yl]methyl}-5-methylpiperazin-1-yl]ethan-1-one diydrochloride] | – | 77 nM | 88% | – | 2.1 nM | –
C[C@@H]1CN(CC(=O)N2CC(C)(C)c3cnc(Cc4ccc(F)cc4F)cc32)[C@@H](CN2CC[C@@H](F)C2)CN1 [Example 203, 1-{6-[(2,4-Difluorophenyl)methyl]-3,3-dimethyl-1H,2H,3H-pyrrolo[3,2-c]pyridin-1-yl}-2-[(2R,5R)-2-{[(3R)-3-fluoropyrrolidin-1-yl]methyl}-5-methylpiperazin-1-yl]ethan-1-one dihydrochloride] | – | 73 nM | – | 97% | 3.2 nM | –
C[C@@H]1CN(CC(=O)N2CC(C)(C)c3ncc(Cc4ccc(F)cc4F)cc32)[C@@H](CN2CC[C@H](F)C2)CN1 [Example 204, 1-{6-[(2,4-Difluorophenyl)methyl]-3,3-dimethyl-1H,2H,3H-pyrrolo[3,2-b]pyridin-1-yl}-2-[(2R,5R)-2-{[(3S)-3-fluoropyrrolidin-1-yl]methyl}-5-methylpiperazin-1-yl]ethan-1-one dihydrochloride] | – | 110 nM | – | 91% | 21 nM | –
C[C@@H]1CN(CC(=O)N2CC(C)(C)c3ncc(Cc4ccc(F)cc4F)cc32)[C@@H](CN2CC[C@@H](F)C2)CN1 [Example 205, 1-{6-[(2,4-Difluorophenyl)methyl]-3,3-dimethyl-1H,2H,3H-pyrrolo[3,2-b]pyridin-1-yl}-2-[(2R,5R)-2-{[(3R)-3-fluoropyrrolidin-1-yl]methyl]-5-methylpiperazin-1-yl]ethan-1-one hydrochloride] | 19 nM | 100 nM | 97% | – | – | –
